From patent publication US4112217A, “Bis-hydrazones of daunomycin and adriamycin” (SRI International, priority 1977, dated 1978) come the findings set out here.

Structures can show the parent of a compound that is named as a salt. Where two headings read alike, the source gives them in different places.

Experiment [1] deals with Cultured L1210 Leukemia Cells. The experiment in a line: Inhibition of RNA synthesis in cultured lymphoid leukemia L1210 cells. Format: cell-based. Particulars: Mus musculus. Here is the method:
(§1) Biological testing data for compounds of this invention as the HCl salts, as well as for adriamycin and daunomycin, are presented in the table given below. The compounds were tested first in cultured lymphoid leukemia L1210 cells for inhibition of nucleic acid synthesis by previously reported procedures. The analogs were then tested against lymphocytic leukemia P388 implanted in mice, under the auspices of the NCI and according to its protocols which use the increased survival time of treated mice compared to controls as the measure of antitumor efficacy.
(§2) ^b Assay described in G. Tong, W. W. Lee, D. R. Black and D. W. Henry

The subject of experiment [2] is Cultured L1210 Leukemia Cells. As to the kind of experiment: Inhibition of DNA synthesis in cultured lymphoid leukemia L1210 cells. Format: cell-based. Particulars: Mus musculus. How it is done:
as §1, §2

Another experiment has as its system P388 Leukemia in Mice. The experiment in a line: Antitumor efficacy vs lymphocytic leukemia P388 implanted in mice (NCI protocol). Format: in vivo, mice (murine). Here is the method:
as §1
^c Ip P388 murine leukemia treated ip on QD1-9 and Q4D 5, 9, 13
schedules according to standard NCI protocols. Assay described in R. I.
Geran, N. H. Greenberg, M. M. MacDonald, A. M. Schumacker and B. J.
Abbott, Cancer Chemother. Rep., Part 3, 3 (No. 2), 9 (1972), Protocol
1,200. T/C = ratio of survival time of treated mice to that of untreated
controls times 100. Untreated controls survive about 9 days.

Where [3] appears, read: L1210, read-out: Inhibition of Synthesis of RNA, Ed50.
[4] abbreviates: L1210, read-out: Inhibition of Synthesis of DNA, ED50.
[5] abbreviates: Mus musculus, ip P388, treated ip, q4d 5,9,13, optimum dose 8 mg/kg, read-out: Antitumor Efficacy T/C.
Setting [6] is: Mus musculus, P388, ip, read-out: Antitumor Efficacy T/C.
Where [7] appears, read: cultured L1210 leukemia cells, RNA synthesis, read-out: Inhibition of Synthesis of RNA, Ed50.
[8] abbreviates: cultured L1210 leukemia cells, DNA synthesis, read-out: Inhibition of Synthesis of DNA, ED50.
The mark [9] stands for this setting: Mus musculus, P388, ip, ip P388, treated ip, qd 1-9, optimum dose 6.25 mg/kg, read-out: Antitumor Efficacy T/C.
The mark [10] stands for this setting: Mus musculus, P388, ip, ip P388, treated ip, q4d 5,9,13, optimum dose 25 mg/kg, read-out: Antitumor Efficacy T/C.

Regarding `COc1cccc2c1C(=O)c1c(O)c3c(c(O)c1C2=O)C[C@@](O)(C(=O)CO)C[C@@H]3O[C@H]1C[C@H](N)[C@H](O)[C@H](C)O1` [Adriamycin], the IC50 in experiment [1] (setting [3]) was 0.67 µM; in experiment [2] (setting [4]), 1.5 µM. Also, the response vs control in vivo at 8 mg/kg in the experiment with P388 Leukemia in Mice (setting [5]) turned out to be 157%. In addition, the response vs control in vivo at 1 mg/kg in the experiment with P388 Leukemia in Mice (Mus musculus, ip P388, treated ip, qd 1-9, optimum dose 1.0 mg/kg, read-out: Antitumor Efficacy T/C) turned out to be 195%.
As for `COc1cccc2c1C(=O)c1c(O)c3c(c(O)c1C2=O)C[C@@](O)(C(C)=O)C[C@@H]3O[C@H]1C[C@H](N)[C@H](O)[C@H](C)O1` [Daunomycin], the values for the IC50 in experiment [1] (setting [3]) and in experiment [2] (setting [4]) were 0.39 µM and 0.49 µM, respectively. For the same compound, in the experiment with P388 Leukemia in Mice (setting [5]), the response vs control in vivo at 8 mg/kg was found to be 134%. Further, in the experiment with P388 Leukemia in Mice (Mus musculus, ip P388, treated ip, qd 1-9, optimum dose 0.5 mg/kg, read-out: Antitumor Efficacy T/C), the response vs control in vivo at 0.5 mg/kg is 166%.
Take `COc1cccc2c1C(=O)c1c(O)c3c(c(O)c1C2=O)C[C@@](O)(C(C)=NNC(=O)CCC(=O)NN=C(C)[C@]1(O)Cc2c(O)c4c(c(O)c2[C@@H](O[C@H]2C[C@H](N)[C@H](O)[C@H](C)O2)C1)C(=O)c1c(OC)cccc1C4=O)C[C@@H]3O[C@H]1C[C@H](N)[C@H](O)[C@H](C)O1` [I, Bis(daunomycin) Succinylhydrazone Dihydrochloride]: the IC50 in experiment [1] (setting [3]) was 3.4 µM. Besides, the IC50 in experiment [2] (setting [4]) was determined as 13 µM. For the same compound, in the experiment with P388 Leukemia in Mice (setting [6]), the response vs control in vivo at 6.25 mg/kg is 283%, the response vs control in vivo at 12.5 mg/kg is 307% and the response vs control in vivo at 20 mg/kg was 170%. The “treated mice survived until sacrifice at 30 days” value in the experiment on P388 Leukemia in Mice (qd 1-9, 6.25 mg/kg, sacrifice at 30 days) is on record as “Three out of six”. Also, the “treated mice survived until sacrifice at 45 days” value in the experiment on P388 Leukemia in Mice (qd 1-9, 12.5 mg/kg, sacrifice at 45 days) is listed as “Two out of six”.
For the compound `COc1cccc2c1C(=O)c1c(O)c3c(c(O)c1C2=O)C[C@@](O)(C(C)=NNC(=O)CCCC(=O)NN=C(C)[C@]1(O)Cc2c(O)c4c(c(O)c2[C@@H](O[C@H]2C[C@H](N)[C@H](O)[C@H](C)O2)C1)C(=O)c1c(OC)cccc1C4=O)C[C@@H]3O[C@H]1C[C@H](N)[C@H](O)[C@H](C)O1` [II, Bis(daunomycin) Glutarylhydrazone Dihydrochloride], the figures for the IC50 in experiment [1] (setting [7]) and in experiment [2] (setting [8]) were 3.6 µM and 4.5 µM, respectively. The response vs control in vivo at 1.56 mg/kg in the experiment on P388 Leukemia in Mice (Mus musculus, P388, ip, ip P388, treated ip, qd 1-9, optimum dose 1.56 mg/kg, read-out: Antitumor Efficacy T/C) was 188%. Further, the response vs control in vivo at 3.12 mg/kg in the experiment on P388 Leukemia in Mice (Mus musculus, P388, ip, ip P388, treated ip, qd 1-9, optimum dose 3.12 mg/kg, read-out: Antitumor Efficacy T/C) was found to be 149%.
On to `COc1cccc2c1C(=O)c1c(O)c3c(c(O)c1C2=O)C[C@@](O)(C(C)=NNC(=O)CCCCC(=O)NN=C(C)[C@]1(O)Cc2c(O)c4c(c(O)c2[C@@H](O[C@H]2C[C@H](N)[C@H](O)[C@H](C)O2)C1)C(=O)c1c(OC)cccc1C4=O)C[C@@H]3O[C@H]1C[C@H](N)[C@H](O)[C@H](C)O1` [III, Bis(daunomycin) Adipylhydrazone Dihydrochloride], for which the IC50 in experiment [1] (setting [7]) is 3.6 µM; in experiment [2] (setting [8]), 8.9 µM. The response vs control in vivo at 37.5 mg/kg with P388 Leukemia in Mice (Mus musculus, P388, ip, ip P388, treated ip, q4d 5,9,13, optimum dose 37.5 mg/kg, read-out: Antitumor Efficacy T/C) came to 196%. The response vs control in vivo at 6.25 mg/kg with P388 Leukemia in Mice (setting [9]) amounted to 281%.
Regarding `COc1cccc2c1C(=O)c1c(O)c3c(c(O)c1C2=O)C[C@@](O)(C(C)=NNC(=O)CCCCCCC(=O)NN=C(C)[C@]1(O)Cc2c(O)c4c(c(O)c2[C@@H](O[C@H]2C[C@H](N)[C@H](O)[C@H](C)O2)C1)C(=O)c1c(OC)cccc1C4=O)C[C@@H]3O[C@H]1C[C@H](N)[C@H](O)[C@H](C)O1` [IV, Bis(daunomycin) Suberylhydrazone Dihydrochloride], the IC50 in experiment [1] (setting [7]) worked out at 2.4 µM; in experiment [2] (setting [8]), 4.9 µM. Moreover, the response vs control in vivo at 25 mg/kg with P388 Leukemia in Mice (setting [10]) is 178%. The response vs control in vivo at 8 mg/kg with P388 Leukemia in Mice (Mus musculus, P388, ip, ip P388, treated ip, qd 1-9, optimum dose 8 mg/kg, read-out: Antitumor Efficacy T/C) is 245%.
Consider `COc1cccc2c1C(=O)c1c(O)c3c(c(O)c1C2=O)C[C@@](O)(C(C)=NNC(=O)C(=O)NN=C(C)[C@]1(O)Cc2c(O)c4c(c(O)c2[C@@H](O[C@H]2C[C@H](N)[C@H](O)[C@H](C)O2)C1)C(=O)c1c(OC)cccc1C4=O)C[C@@H]3O[C@H]1C[C@H](N)[C@H](O)[C@H](C)O1` [IX, Bis-(Daunomycin) Oxalylhydrazone Dihydrochloride], for which the IC50 in experiment [1] (setting [7]) is 2.3 µM; in experiment [2] (setting [8]) it was 4.3 µM. In the experiment on P388 Leukemia in Mice (setting [10]), the response vs control in vivo at 25 mg/kg was found to be 160%.
For `COc1cccc2c1C(=O)c1c(O)c3c(c(O)c1C2=O)C[C@@](O)(C(C)=NNC(=O)CCCCCCCCC(=O)NN=C(C)[C@]1(O)Cc2c(O)c4c(c(O)c2[C@@H](O[C@H]2C[C@H](N)[C@H](O)[C@H](C)O2)C1)C(=O)c1c(OC)cccc1C4=O)C[C@@H]3O[C@H]1C[C@H](N)[C@H](O)[C@H](C)O1` [V, Bis(Daunomycin) Sebacylhydrazone Dihydrochloride], the IC50 in experiment [1] (setting [3]) turned out to be 1 µM; in experiment [2] (setting [4]), 10 µM. Moreover, in the experiment on P388 Leukemia in Mice (setting [6]), the response vs control in vivo at 12.5 mg/kg is 221%. Besides, in the experiment with P388 Leukemia in Mice (setting [6]), the response vs control in vivo at 50 mg/kg was 163%.
Regarding `COc1cccc2c1C(=O)c1c(O)c3c(c(O)c1C2=O)C[C@@](O)(C(C)=NNC(=O)CCC(=O)NN=C(C)[C@]1(O)Cc2c(O)c4c(c(O)c2[C@@H](O[C@H]2C[C@H](N(C)C)[C@H](O)[C@H](C)O2)C1)C(=O)c1c(OC)cccc1C4=O)C[C@@H]3O[C@H]1C[C@H](N(C)C)[C@H](O)[C@H](C)O1` [VI, Bis(N,N-dimethyldaunomycin) Succinylhydrazone Dihydrochloride], the IC50 in experiment [1] (setting [7]) turned out to be 3 µM; in experiment [2] (setting [8]) it was 19 µM. In addition, in the experiment on P388 Leukemia in Mice (setting [10]), the response vs control in vivo at 25 mg/kg was determined as 158%. In the experiment with P388 Leukemia in Mice (Mus musculus, P388, ip, ip P388, treated ip, qd 1-9, optimum dose 4 mg/kg, read-out: Antitumor Efficacy T/C), the response vs control in vivo at 4 mg/kg is 178%.
As to `COc1cccc2c1C(=O)c1c(O)c3c(c(O)c1C2=O)C[C@@](O)(C(CO)=NNC(=O)CCC(=O)NN=C(CO)[C@]1(O)Cc2c(O)c4c(c(O)c2[C@@H](O[C@H]2C[C@H](N)[C@H](O)[C@H](C)O2)C1)C(=O)c1c(OC)cccc1C4=O)C[C@@H]3O[C@H]1C[C@H](N)[C@H](O)[C@H](C)O1` [VII, Bis(adriamycin) Succinylhydrazone Dihydrochloride], the IC50 stood at 3.1 µM in experiment [1] (setting [7]) and 13.3 µM in experiment [2] (setting [8]). Further, in the experiment with P388 Leukemia in Mice (Mus musculus, P388, ip, ip P388, treated ip, q4d 5,9,13, optimum dose 18.8 mg/kg, read-out: Antitumor Efficacy T/C), the response vs control in vivo at 18.8 mg/kg stood at 160%. Besides, the response vs control in vivo at 6.25 mg/kg in the experiment with P388 Leukemia in Mice (setting [9]) turned out to be 309%.
For the compound `COc1cccc2c1C(=O)c1c(O)c3c(c(O)c1C2=O)C[C@@](O)(C(C)=NNC(=O)CC(=O)NN=C(C)[C@]1(O)Cc2c(O)c4c(c(O)c2[C@@H](O[C@H]2C[C@H](N)[C@H](O)[C@H](C)O2)C1)C(=O)c1c(OC)cccc1C4=O)C[C@@H]3O[C@H]1C[C@H](N)[C@H](O)[C@H](C)O1` [VIII, Bis(daunomycin) Malonylhydrazone Dihydrochloride], the IC50 in experiment [1] (setting [7]) came to 7.4 µM; in experiment [2] (setting [8]), 14.1 µM. Further, the response vs control in vivo at 6.25 mg/kg in the experiment on P388 Leukemia in Mice (setting [9]) was determined as 169%. Moreover, the “Antitumor Efficacy (in words)” value in the experiment on P388 Leukemia in Mice (ip P388, treated ip, q4d 5,9,13, dose not given) is “inactive”.
For `COc1cccc2c1C(=O)c1c(O)c3c(c(O)c1C2=O)C[C@@](O)(C(C)=NNC(=O)CCCCCC(=O)NN=C(C)[C@]1(O)Cc2c(O)c4c(c(O)c2[C@@H](O[C@H]2C[C@H](N)[C@H](O)[C@H](C)O2)C1)C(=O)c1c(OC)cccc1C4=O)C[C@@H]3O[C@H]1C[C@H](N)[C@H](O)[C@H](C)O1` [X, Bis-(daunomycin) Pimelylhydrazone Dihydrochloride], the IC50 in experiment [1] (setting [3]) was determined as 1.3 µM; in experiment [2] (setting [4]), 2 µM. Moreover, the response vs control in vivo at 25 mg/kg in the experiment on P388 Leukemia in Mice (setting [6]) stood at 160%.
